In patent publication US5200409A, “Composition and use of substituted 1,3-dithiolo-and 1,4-dithiinoquinoxalines as an antimicrobial” (The Dow Chemical Company, priority 1992, dated 1993):
In brackets after ≈: the same amount, converted by molar mass. Read-outs that look alike come from different tables or passages of the source.

Columns and labels:
[1] = test system: Salmonella choleraesuis (Sc); test: Minimum inhibitory concentration (MIC) in nutrient agar; type: cell-based, Salmonella choleraesuis ATCC 10708; conditions: Salmonella enterica, 48 h
Method: (§1) The minimum inhibitory concentration (MIC) for the compounds listed in Table I is determined for 9 bacteria, using nutrient agar: and 7 yeast and fungi, using malt yeast agar. A one percent solution of the test compound is prepared in a mixture of acetone and water. Nutrient agar is prepared at pH 6.8, representing a neutral medium, and at pH 8.2, representing an alkaline medium. The nutrient agars are prepared by adding 23 g of nutrient agar to one-liter of deionized water. In addition, the alkaline medium is prepared by adjusting a 0.04M solution of N-[tris-(hydroxymethyl)methyl]-glycine buffered deionized water with concentrated sodium hydroxide to a pH of […]. Malt yeast agar is prepared by adding 3 g yeast extract and 45 g malt agar per liter of deionized water. The specific agar is dispensed in 30 ml aliquots into 25×200 mm test tubes, capped and autoclaved for 15 minutes at 115° C. The test tubes containing the agar are cooled in a water bath until the temperature of the agar is 48° C. Then, an appropriate amount of the one percent solution of the test compound is added (except in the controls where no compound is added) to the respective test tubes so that the final concentrations are 500, 250, 100, 50, 25, 10, 5, 2.5, 1.0 and zero parts per million of the test compound in the agar, thus having a known concentration of test compound dispersed therein. The contents of the test tubes are then transferred to respective petri plates. After drying for 24 hours, the petri plates containing nutrient agar are inoculated with bacteria and those containing malt yeast agar are inoculated with yeast and fungi.
(§2) The inoculation with bacteria is accomplished by using the following procedure. Twenty-four hour-cultures of each of the bacteria are prepared by incubating the respective bacteria in tubes containing nutrient broth for 24 hours at 30° C. in a shaker. Dilutions of each of the 24 hour-cultures are made so that nine separate suspensions (one for each of the nine test bacteria) are made, each containing 10^8 colony forming units (CFU) per ml of suspension of a particular bacteria. Aliquots of 0.3 ml of each of the bacterial suspensions are used to fill the individual wells of Steer's Replicator. For each microbial suspension, 0.3 ml was used to fill three wells (i.e., three wells of 0.3 ml each) so that for the nine different bacteria, 27 wells are filled. The Steer's Replicator is then used to inoculate both the neutral and alkaline pH nutrient agar petri plates.
(§3) The inoculated petri plates are incubated at 30° C. for 48 hours and then read to determine if the test compound which is incorporated into the agar prevented growth of the respective bacteria.
(§4) Table II lists the bacteria, yeast and fungi used in the MIC test described above along with their respective American Type Culture Collection (ATCC) identification numbers.

Escherichia coli (Ec) = test: as above; type: cell-based, Escherichia coli ATCC 11229; conditions: 48 h
Method: as §1, §2, §3, §4

[2] = test system: Penicillium chrysogenum (Pc); test: Minimum inhibitory concentration (MIC) in malt yeast agar; type: cell-based, Penicillium chrysogenum ATCC 9480; conditions: malt yeast agar; 30° C.; 72 hours for fungi; read-out: Minimum Inhibitory Concentration, Pc
Method: as §1
(§5) The inoculation with the yeast and fungi is accomplished as follows. Cultures of yeast and fungi are incubated for seven days on malt yeast agar at 30° C. These cultures are used to prepare suspensions by the following procedure. A suspension of each organism is prepared by adding 10 ml of sterile saline and 10 microliters of octylphenoxy polyethoxy ethanol to the agar slant of yeast or fungi. The sterile saline/octylphenoxy polyethoxy ethanol solution is then agitated with a sterile swab to suspend the microorganism grown on the slant. Each resulting suspension is diluted into sterile saline (1 part suspension: 9 parts sterile saline). Aliquots of these dilutions are placed in individual wells of Steer's Replicator and petri plates inoculated as previously described. The petri plates are incubated at 30° C. and read after 48 hours for yeast and 72 hours for fungi.
as §4

[3] = test system: Aureobasidium pullulan (Ap); test: as above; type: cell-based, Aureobasidium pullulan ATCC 16622; conditions: malt yeast agar; 30° C.; 48 hours for yeast and 72 hours for fungi; read-out: Minimum Inhibitory Concentration, Ap
Method: as §1, §5, §4

Candida albicans (Ca) = test: as above; type: cell-based, Candida albicans ATCC 10231; conditions: malt yeast agar; 30° C.; 48 hours for yeast; read-out: Minimum Inhibitory Concentration, Ca
Method: as §1, §5, §4

Bacillus subtilis (Bs) = test: Minimum inhibitory concentration (MIC) in nutrient agar; type: cell-based, Bacillus subtilis ATCC 8473
Method: as §1, §2, §3, §4

[4] = test system: Pseudomonas aeruginosa (Pa); test: as above; type: cell-based, Pseudomonas aeruginosa ATCC 10145; conditions: 48 hours
Method: as §1, §2, §3, §4

Proteus vulgaris (Pv) = test: as above; type: cell-based, Proteus vulgaris ATCC 881; conditions: 48 h
Method: as §1, §2, §3, §4

[5] = test system: Staphylococcus aureus (Sa); test: as above; type: cell-based, Staphylococcus aureus ATCC 6538
Method: as §1, §2, §3, §4

[6] = test system: Klebsiella pneumoniae (Kp); test: as above; type: cell-based, Klebsiella pneumoniae ATCC 8308
Method: as §1, §2, §3, §4

[7] = test system: Enterobacter aerogenes (Ea); test: as above; type: cell-based, Enterobacter aerogenes ATCC 13048; conditions: Klebsiella aerogenes, 48 h
Method: as §1, §2, §3, §4

Trichoderma viride (Tv) = test: Minimum inhibitory concentration (MIC) in malt yeast agar; type: cell-based, Trichoderma viride ATCC 8678; conditions: read-out: Minimum Inhibitory Concentration, Tv
Method: as §1, §5, §4

Aspergillus niger (An) = test: as above; type: cell-based, Aspergillus niger ATCC 16404; conditions: malt yeast agar; 30° C.; 72 hours for fungi; read-out: Minimum Inhibitory Concentration, An
Method: as §1, §5, §4

[8] = test system: Pseudomonas aeruginosa (PRD-10); test: Minimum inhibitory concentration (MIC) in nutrient agar; type: cell-based, Pseudomonas aeruginosa ATCC 15442; conditions: 48 h
Method: as §1, §2, §3, §4

Fusarium oxysporum (Fo) = test: Minimum inhibitory concentration (MIC) in malt yeast agar; type: cell-based, Fusarium oxysporum ATCC 48112; conditions: read-out: Minimum Inhibitory Concentration, Fo
Method: as §1, §5, §4

[9] = test system: Saccharomyces cerevisiae (Sc); test: as above; type: cell-based, Saccharomyces cerevisiae ATCC 4105; conditions: malt yeast agar, 30° C., 48 hours for yeast, read-out: Minimum Inhibitory Concentration, Sc
Method: as §1, §5, §4

[10] = pH 6.8, read-out: Minimum Inhibitory Concentration, Sc
[11] = pH 8.2, read-out: Minimum Inhibitory Concentration, Sc
[12] = pH 6.8, read-out: Minimum Inhibitory Concentration, Ec
[13] = pH 8.2, read-out: Minimum Inhibitory Concentration, Ec
[14] = pH 6.8, read-out: Minimum Inhibitory Concentration, Pv
[15] = pH 8.2, read-out: Minimum Inhibitory Concentration, Pv
[16] = pH 6.8, nutrient agar, 30° C., 48 hours, read-out: Minimum Inhibitory Concentration, Sa
[17] = 48 h, pH 8.2, read-out: Minimum Inhibitory Concentration, Kp
[18] = pH 6.8, nutrient agar, 30° C., 48 hours, read-out: Minimum Inhibitory Concentration, Kp
[19] = pH 6.8, read-out: Minimum Inhibitory Concentration, Ea
[20] = pH 8.2, read-out: Minimum Inhibitory Concentration, Ea
[21] = malt yeast agar, 30° C., 72 hours for fungi
[22] = pH 6.8, read-out: Minimum Inhibitory Concentration, PRD
[23] = pH 8.2, read-out: Minimum Inhibitory Concentration, PRD
[24] = pH 6.8, nutrient agar, 30° C., 48 hours, read-out: Minimum Inhibitory Concentration, Bs
[25] = pH 8.2, nutrient agar, 30° C., 48 hours, read-out: Minimum Inhibitory Concentration, Bs
[26] = pH 8.2, nutrient agar, 30° C., 48 hours, read-out: Minimum Inhibitory Concentration, Sa

SMILES | MIC [1, 10] [µg/mL] | MIC [1, 11] [µg/mL] | MIC (Escherichia coli (Ec); [12]) [µg/mL] | MIC (Escherichia coli (Ec); [13]) [µg/mL] | MIC [2] [µg/mL] | MIC [3] [µg/mL] | MIC (Candida albicans (Ca)) [µg/mL] | MIC ([4]; pH 6.8, 30° C.) [µg/mL] | MIC ([4]; pH 8.2, 30° C.) [µg/mL] | MIC (Proteus vulgaris (Pv); [14]) [µg/mL] | MIC (Proteus vulgaris (Pv); [15]) [µg/mL] | MIC [5, 16] [µg/mL] | MIC [6, 17] [µg/mL] | MIC [6, 18] [µg/mL] | MIC [7, 19] [µg/mL] | MIC [7, 20] [µg/mL] | MIC (Aspergillus niger (An)) [µg/mL] | MIC [8, 22] [µg/mL] | MIC [8, 23] [µg/mL] | MIC [9] [µg/mL] | other results
Cc1ccc2nc3c(nc2c1)SC(=C(C#N)C#N)S3 [N, 6-methyl-1,3-dithiolo-(4,5-b)-quinoxaline-2-ylidene-propanedinitrile] | 500 (≈ 1770 µM) | > 500 | > 500 | > 500 | 500 (≈ 1770 µM) | 500 (≈ 1770 µM) | > 500 | > 500 | > 500 | > 500 | > 500 | > 500 | > 500 | > 500 | > 500 | > 500 | 500 (≈ 1770 µM) | > 500 | > 500 | > 500 | MIC (Bacillus subtilis (Bs); 48 h, pH 6.8, read-out: Minimum Inhibitory Concentration, Bs): > 500 µg/mL; MIC (Bacillus subtilis (Bs); 48 h, pH 8.2, read-out: Minimum Inhibitory Concentration, Bs): > 500 µg/mL; MIC ([5]; 48 h, pH 8.2, read-out: Minimum Inhibitory Concentration, Sa): > 500 µg/mL; MIC (Trichoderma viride (Tv); [21]): > 500 µg/mL; MIC (Fusarium oxysporum (Fo); [21]): > 500 µg/mL
N#CC1=C(C#N)Sc2nc3cc(C#N)ccc3nc2S1 [H, 7-cyano-1,4-dithiino-(2,3-b)-quinoxaline-2,3-dicarbonitrile] | > 500 | > 500 | > 500 | > 500 | < 10 | < 10 | 25 (≈ 85.2 µM) | > 500 | > 500 | 500 (≈ 1700 µM) | > 500 | 25 (≈ 85.2 µM) | > 500 | 500 (≈ 1700 µM) | > 500 | > 500 | 25 (≈ 85.2 µM) | > 500 | > 500 | < 10 | MIC (Bacillus subtilis (Bs); [24]): < 10 µg/mL; MIC (Bacillus subtilis (Bs); [25]): 50 µg/mL (≈ 170 µM); MIC [5, 26]: 50 µg/mL (≈ 170 µM); MIC (Trichoderma viride (Tv); 72 h): 100 µg/mL (≈ 341 µM); MIC (Fusarium oxysporum (Fo); 72 h): 50 µg/mL (≈ 170 µM)
COc1ccc2nc3c(nc2c1)SC(C#N)=C(C#N)S3 [J, 7-methoxy-1,4-dithiino-(2,3-b)-quinoxaline-2,3-dicarbonitrile] | > 500 | > 500 | > 500 | > 500 | 25 (≈ 83.8 µM) | – | 25 (≈ 83.8 µM) | > 500 | > 500 | > 500 | > 500 | – | > 500 | > 500 | > 500 | > 500 | 25 (≈ 83.8 µM) | > 500 | > 500 | < 10 | MIC (Bacillus subtilis (Bs); [24]): < 10 µg/mL; MIC (Bacillus subtilis (Bs); [25]): 25 µg/mL (≈ 83.8 µM); MIC ([5]; 48 h, pH 6.8, read-out: Minimum Inhibitory Concentration, Sa): < 10 µg/mL; MIC [5, 26]: 25 µg/mL (≈ 83.8 µM); MIC (Trichoderma viride (Tv); 72 h): 100 µg/mL (≈ 335 µM); MIC (Fusarium oxysporum (Fo); [21]): 25 µg/mL (≈ 83.8 µM)
